Experimental data reported in patent US8481551B2, “Gyrase and topoisomerase IV inhibitors” (Vertex Pharmaceuticals Incorporated, priority 2011, dated 2013).
Where a name gives a salt, the structure may show the parent alone. Read-outs that look alike come from different tables or passages of the source.

Key:
[1] = system: S. aureus (ATCC 29213); assay: Mouse S. aureus kidney infection model; format: in vivo, CD-1 mice
Experimental: Animals: female CD-1 mice (8-10 weeks of age; 6/group), were obtained from Charles River Laboratories and were housed and maintained in accordance with the Guide to the Care and Use of Experimental Animals. Methicillin-sensitive S. aureus (MSSA) strain ATCC 29213 was obtained from the American Type Culture Collection. To prepare stocks for animal studies S. aureus was plated on Mueller Hinton Agar plates and incubated at 37° C. overnight. 3-4 colonies from the plate were used to inoculate 5 mL Mueller Hinton Broth (MHB) that was incubated for 8 hours at 37° C. with shaking at 300 RPM. The 5 mL 8-hour culture was diluted 20-fold into 100 mL and incubated overnight (12-14 hours). The bacteria were pelleted for 20 minutes at 3000× and washed twice with Phosphate-Buffered Saline (PBS) containing 0.5% Bovine Serum Albumin (BSA). Aliquots (1 mL) containing ˜1×10^10 cfu in PBS/20% Glycerol were frozen and stored at −80° C. until the day of use. Stock titers were confirmed by serial dilution and plating on Mueller Hinton agar plates. Prior to inoculation, bacterial stocks were thawed and washed once with PBS/BSA. The stocks were then diluted with PBS/BSA to a final concentration of 1×10^9 cfu/mL to give an inoculum of approximately 1-2×10^8 cfu per mouse in a volume of 100 uL. […] Injections were given intravenously via the tail vein using a sterile 30 gauge needle. Upon completion of the mouse infections, the bacterial stocks used to challenge the mice were plated and counted to verify the concentration of the inocula. […] Fisher Scientific). During collection and homogenization all of the samples were kept on ice and the homogenizer was washed thoroughly and sterilized between each sample. Homogenates were serially diluted in sterile PBS/BSA and plated on MH agar to determine bacterial counts per pair of kidneys. CD-1 mice (6/group) were challenged IV with S. aureus (ATCC 29213) at 2×10^8 cfu/mouse. […] The 30-minute and 6-hour treatment groups were treated once, while the 24-hour group received a second treatment 10 hours after the first dose. […] Burdens from pairs of kidneys for each mouse and the median for each group of mice were calculated. CD-1 mice (6/group) were challenged IV with S. aureus (ATCC 29213) at 2×10^8 cfu/mouse. After 2 hours a single group of mice (Early Control (EC)) was euthanized and the kidneys harvested, homogenized and plated to quantitate S. aureus burdens. The additional groups of infected mice were treated via oral gavage with Vehicle at 10 ml/kg (10% VitE TPGS; […] After 24 hours the groups of treated mice were euthanized and the kidneys harvested, homogenized and plated to quantitate S. aureus burdens. Burdens from pairs of kidneys for each mouse and the median for each group of mice were summarized. CD-1 mice (8/group) were challenged IV with S. aureus (ATCC 29213) at 2×10^8 cfu/mouse. After 2 hours a single group of mice (Early Control (EC)) was euthanized and the kidneys harvested, homogenized and plated to quantitate S. aureus burdens. The additional groups of infected mice were treated via oral gavage with Vehicle at 10 ml/kg (Water; […] After 24 hours the groups of treated mice were euthanized and the kidneys harvested, homogenized and plated to quantitate S. aureus burdens. Burdens from pairs of kidneys for each mouse and the median for each group of mice were summarized.

[2] = system: Neisseria meningitidis; assay: Gyrase MIC, agar dilution method (Protocol 3); format: cell-based; conditions: 12 isolates tested
[3] = system: Clostridium perfringens; assay: microbe, parasite or virus in culture; format: cell-based
[4] = system: Fusobacterium spp.; assay: Gyrase MIC, agar dilution method (Protocol 3); format: cell-based; conditions: 16 isolates tested
[5] = system: Peptostreptococcus spp.; assay: Gyrase MIC, agar dilution method (Protocol 3); format: cell-based; conditions: 11 isolates tested
[6] = system: Nocardia caviae; assay: MIC determination procedure for Mycobacterium species (Protocol 4); format: cell-based; conditions: Nocardia otitidiscaviarum
[7] = system: N. nova; assay: as above; format: cell-based; conditions: N. nova 10
[8] = system: Enterococcus faecium; assay: Gyrase MIC, microdilution broth method (Protocol 1); conditions: for MIC Range: 33 isolates tested
[9] = system: Pseudomonas aeruginosa; assay: Gyrase MIC against Gram negatives, microdilution broth method (Protocol 2)
[10] = single oral dose 16 (10) mg/kg Compound W, after 24 hours
[11] = single oral dose 49 (30) mg/kg Compound W, after 24 hours
[12] = single oral dose 99 (60) mg/kg Compound W, after 24 hours
[13] = single oral dose 166 (100) mg/kg Compound W, after 24 hours
[14] = 10 mg/kg oral gavage, second treatment 10 hours after first, 24 Hours
[15] = 10 mg/kg oral gavage, treated once, 6 Hours
[16] = 30 mg/kg oral gavage, second treatment 10 hours after first, 24 Hours
[17] = 30 mg/kg oral gavage, treated once, 6 Hours
[18] = 30 mg/kg oral gavage, treated once, 30 Minutes
[19] = 100 mg/kg oral gavage, second treatment 10 hours after first, 24 Hours
[20] = 100 mg/kg oral gavage, treated once, 6 Hours
[21] = 100 mg/kg oral gavage, treated once, 30 Minutes
[22] = single oral dose 10 mg/kg, after 24 hours
[23] = single oral dose 30 mg/kg, after 24 hours
[24] = single oral dose 60 mg/kg, after 24 hours
[25] = single oral dose 100 mg/kg, after 24 hours
[26] = ATCC49624, Enterococcus faecium ATCC 49624, Protocol 1
[27] = ATCC49624, Enterococcus faecium ATCC 49624 with Laked Horse Blood, Protocol 1

SMILES: CCNC(=O)Nc1nc2cc(-c3cnc(C(C)(C)OP(=O)([O-])[O-])nc3)c(F)c([C@H]3CCCO3)c2[nH]1.[Na+].[Na+] [Compound W, disodium (R)-2-(5-(2-(3-ethylureido)-6-fluoro-7-(tetrahydrofuran-2-yl)-1H-benzo[d]imidazol-5-yl)pyrimidin-2-yl)propan-2-yl phosphate]
- Median Kidney Burden (Log10 CFU/kidneys) ([1]; single oral dose 16 (10) mg/kg Compound W (dose equivalent in brackets), after 24 hours): 3.69 Log10 CFU/kidneys
- Log10 Difference vs. Early Control [1, 10]: −0.71
- Log10 Difference vs. Late Control [1, 10]: −2.25
- Log10 Difference vs. Early Control [1, 11]: −1.18
- Log10 Difference vs. Late Control [1, 11]: −2.72
- Median Kidney Burden (Log10 CFU/kidneys) [1, 11]: 3.22 Log10 CFU/kidneys
- Log10 Difference vs. Early Control [1, 12]: −1.08
- Log10 Difference vs. Late Control [1, 12]: −2.62
- Median Kidney Burden (Log10 CFU/kidneys) [1, 12]: 3.32 Log10 CFU/kidneys
- Log10 Difference vs. Early Control [1, 13]: −1.46
- Log10 Difference vs. Late Control [1, 13]: −3.00
- Median Kidney Burden (Log10 CFU/kidneys) [1, 13]: 2.94 Log10 CFU/kidneys
- reduction of bacterial burdens versus the early control ([1]; single oral doses of 16, 49, 99 and 166 mg/kg Compound W, after 24 hours): 0.7-1.5 logs

SMILES: CCNC(=O)Nc1nc2cc(-c3cnc(C(C)(C)O)nc3)c(F)c([C@H]3CCCO3)c2[nH]1 [Compound 23A, methanesulfonic acid salt of 1-ethyl-3-[6-fluoro-5-[2-(1-hydroxy-1-methyl-ethyl)pyrimidin-5-yl]-7-[(2R)-tetrahydrofuran-2-yl]-1H-benzimidazol-2-yl]urea]
- MIC90 [2]: 0.03 mg/L
- MIC Range [2]: 0.008 to 0.06 mg/L
- MIC90 [3]: 0.5 mg/L
- MIC Range ([3]; 12 isolates tested, Protocol 3): 0.12 to 0.5 mg/L
- MIC90 [4]: > 16 mg/L
- MIC90 [5]: > 16 mg/L
- MIC [6]: 0.125 mg/L
- MIC [7]: 1 mg/L
- Median Kidney Burden (Log cfu/kidneys) ([1]; 10 mg/kg oral gavage 2 h post challenge, treated once, time of treatment 30 Minutes): 4.84 Log cfu/kidneys
- Log Difference vs. Vehicle Control [1, 14]: −1.87
- Median Kidney Burden (Log cfu/kidneys) [1, 14]: 4.48 Log cfu/kidneys
- Log Difference vs. Vehicle Control [1, 15]: −0.37
- Median Kidney Burden (Log cfu/kidneys) [1, 15]: 4.84 Log cfu/kidneys
- Log Difference vs. Vehicle Control ([1]; 10 mg/kg oral gavage, treated once, 30 Minutes): −0.14
- Log Difference vs. Vehicle Control [1, 16]: −2.90
- Median Kidney Burden (Log cfu/kidneys) [1, 16]: 3.44 Log cfu/kidneys
- Log Difference vs. Vehicle Control [1, 17]: −0.59
- Median Kidney Burden (Log cfu/kidneys) [1, 17]: 4.62 Log cfu/kidneys
- Log Difference vs. Vehicle Control [1, 18]: 0.00
- Median Kidney Burden (Log cfu/kidneys) [1, 18]: 4.97 Log cfu/kidneys
- Log Difference vs. Vehicle Control [1, 19]: −2.86
- Median Kidney Burden (Log cfu/kidneys) [1, 19]: 3.49 Log cfu/kidneys
- Log Difference vs. Vehicle Control [1, 20]: −0.66
- Median Kidney Burden (Log cfu/kidneys) [1, 20]: 4.55 Log cfu/kidneys
- Log Difference vs. Vehicle Control [1, 21]: −0.08
- Median Kidney Burden (Log cfu/kidneys) [1, 21]: 4.89 Log cfu/kidneys
- kidney burden, compound- versus vehicle-treated mice ([1]; 30 minutes after the initial treatment, 10, 30, 100 mg/kg oral): no difference in kidney burden
- log reduction versus the 30 minute early control ([1]; 6 hours after the first dose, 30 and 100 mg/kg oral): 0.3-0.4 log
- reduction of bacterial burdens in the kidneys versus time-matched vehicle control ([1]; 6 hours after the first dose, all compound treatments (10, 30, 100 mg/kg oral)): 0.4-0.6 logs
- log reduction versus the 24-hour vehicle-treated control ([1]; 24 hours, 10 mg/kg BID oral): 1.8 log
- log reduction versus the 24-hour vehicle-treated control ([1]; 24 hours, 30 and 100 mg/kg BID oral): 2.8-2.9 log
- log reductions versus the 30-minute vehicle-treated control ([1]; 24 hours, 30 and 100 mg/kg oral): approximately 1.5 log
- Median Kidney Burden (Log cfu/kidneys) ([1]; single oral dose 10 mg/kg 2 h post challenge, after 24 hours): 4.73 Log cfu/kidneys
- Log Reduction vs. Early Control [1, 22]: 0.00
- Log Reduction vs. Late Control [1, 22]: −1.90
- log reductions versus vehicle control [1, 22]: 1.9 log
- Log Reduction vs. Early Control [1, 23]: −0.40
- Log Reduction vs. Late Control [1, 23]: −2.31
- Median Kidney Burden (Log cfu/kidneys) [1, 23]: 4.32 Log cfu/kidneys
- log reductions versus vehicle control [1, 23]: 2.3 log
- Log Reduction vs. Early Control [1, 24]: −1.21
- Log Reduction vs. Late Control [1, 24]: −3.11
- Median Kidney Burden (Log cfu/kidneys) [1, 24]: 3.52 Log cfu/kidneys
- log reductions versus vehicle control [1, 24]: 3.1 log
- Log Reduction vs. Early Control [1, 25]: −1.42
- Log Reduction vs. Late Control [1, 25]: −3.32
- Median Kidney Burden (Log cfu/kidneys) [1, 25]: 3.31 Log cfu/kidneys
- log reductions versus vehicle control [1, 25]: 3.3 log
- reduction of bacterial burdens versus the early control ([1]; single oral doses of 60 and 100 mg/kg, after 24 hours): 1.2-1.4 logs
- MIC90 [8]: 0.12 mg/L
- MIC Range ([8]; Protocol 1): 0.003 to 0.25 mg/L
- MIC [8, 26]: 0.11 mg/L
- MIC [8, 27]: 0.11 mg/L
- MIC [9]: 0.25 mg/L
- MIC90 [9]: > 8 mg/L
- MIC ([9]; PAO1): > 16 mg/L

SMILES: CCNC(=O)Nc1nc2cc(-c3cnc(C(C)(C)O)nc3)cc([C@H]3CCCO3)c2[nH]1 [Compound 13, methanesulfonic acid salt of 1-ethyl-3-[5-[2-(1-hydroxy-1-methyl-ethyl)pyrimidin-5-yl]-7-[(2R)-tetrahydrofuran-2-yl]-1H-benzimidazol-2-yl]urea]
- MIC90 [2]: 0.12 mg/L
- MIC Range [2]: 0.015 to 0.25 mg/L
- MIC90 [3]: 0.5 mg/L
- MIC90 [4]: 2 mg/L
- MIC Range [4]: 1 to 4 mg/L
- MIC90 [5]: > 16 mg/L
- MIC ([6]; Nocardia caviae 2497, Protocol 4, read-out: MIC): 2 mg/L
- MIC [7]: 8 mg/L
- MIC90 [8]: 0.5 mg/L
- MIC Range ([8]; Protocol 1): 0.12 to 0.5 mg/L
- MIC [8, 26]: 0.25 mg/L
- MIC [8, 27]: 0.39 mg/L
- MIC [9]: 0.33 mg/L
- MIC90 [9]: > 8 mg/L
- MIC ([9]; PAO1): > 16 mg/L
